US10570177B2, “P3 peptidylic inhibitors for treating CAG-repeat RNA toxicity in polyglutamine diseases” (The Chinese University of Hong Kong, priority 2017, dated 2020)
Where “and” joins values, the source holds several entries; their conditions need not be identical. Equal values may be shown once. Marks after values point to notes of the source that are not given here. Residues, ends and D or L forms follow the SMILES beside them. *: point of attachment. Palmitoyl = CCCCCCCCCCCCCCCC(=O)*

How the values were obtained:
[1] = test system: HEK293 cells; experiment: Cellular uptake studies in HEK293 cells (LC/MS); format: in vitro ADME; settings: 3 hr; for cellular uptake: 100 nM peptide
Experimental: HEK293 cells were seeded on a 6-well plate at a density of 6×10^5 and cultured overnight at 37° C. with 5% CO2 in DMEM supplemented with 10% FBS and 1% penicillin-streptomycin. Cells were then treated with 100, 500 or 1000 nM of respective peptide at 37° C. for 3 hr. After treatment, the cells were washed with ice-cold PBS and then lysed by 2% SDS solution. Aliquot (100 μl) of the cell lysate was added with 200 μl acetonitrile and centrifuged at 13000 rcf for 10 min to precipitate the proteins. The collected supernatant was subjected to LC/MS analysis. The protein concentration of the cell lysate was measured using a bicinchoninic acid protein assay kit following Sigma's protocol.

[2] = In vitro stability in rat plasma; format: in vitro ADME; settings: 37° C.
Experimental: Sprague-Dawley (SD) rats (male, 180-200 g) were supplied by the Laboratory Animal Services Centre at The Chinese University of Hong Kong. All animal studies were conducted under the approval of the Animal Ethics Committee of The Chinese University of Hong Kong, and were performed in accordance with relevant guidelines and regulations. Blank rat brain homogenate was prepared by ultrasonic probe homogenization (Micoson XL-2000, Misonix, Framingdale, N.Y., USA) of brains collected from the control rats. Blank rat plasma was prepared by centrifugation (8000 rcf for 3.5 min) of blood collected from control rats. […] The mixtures were incubated at 37° C. with 100 rpm in a water bath for 1 or 3 hr. The incubation was terminated by addition twice the volume of acetonitrile and centrifugation at 13000 rcf for 10 min. The supernatant was collected for LC/MS/MS analysis.

[3] = Plasma pharmacokinetic study in SD rat; settings: for AUC0-last: Intranasal administration (pre-treated with 0.5% chitosan)
Experimental: (§1) SD rats (180-200 g) were anesthetized with an intraperitoneal injection of ketamine (60 mg/kg) and xylazine (6 mg/kg) and received a minor surgery of cannulation with a polythene tube (0.4 mm i.d., 0.8 mm o.d., Harvard Apparatus, Holliston, Mass., USA) in the left jugular vein. The rats received an overnight recovery with free access to food and water. […] For the pharmacokinetic study, after the drug administration, blood samples were collected from the catheter at appropriate time intervals (2, 5, 10, 15, 20, 30, 45, 60, and 90 min). After each collection, 0.2 mL of saline containing 25 IU heparin was injected to compensate for the blood loss. Plasma was collected after centrifugation at 8000 rcf for 3.5 min and stored at −80° C. until analysis. For brain uptake study, at 20 min, the rat was anesthetized and perfused by 500 mL saline, and the whole brain was collected. The brain was wiped by tissue paper to remove excess water, meninges and blood vessels followed by storage at −80° C. until analysis.
Aliquot of plasma sample (80 μL) was mixed with 160 μL acetonitrile. The mixture was vortexed for 1 min and followed by centrifugation at 13000 rcf for 10 min. The supernatant was collect and subjected to LC/MS/MS analysis.
Agilent 6430 Triple Quadrupole LC/MS/MS system (Agilent Technologies, CA, USA) was employed for the analysis. For analysis of P3V8, chromatographic separation was achieved on a SunFire C8 Column (250 mm×4.6 mm, 5 μm). The mobile phase of water containing 0.2% formic acid (A) and acetonitrile (B) was used with a gradient elution (0-5 min, 20-70% B). The flow rate was 0.8 mL/min. Multiple reactions monitoring (MRM) with fragmentation transition of 500 to 129 in positive ion mode was employed for quantization of P3V8. […] Mobile phase of water (A) and acetonitrile (B) was used. The gradient elution for plasma samples was 0-4 min, 30-95% B, and for brain samples was 0-9 min, 10-95% B. The flow rate was 0.8 mL/min.
Plasma concentration verse time profiles were analyzed by WinNonlin (Pharsight Corporation, Mountain View, Calif., USA, Version 2.1) to obtain the pharmacokinetics parameters. Other data were analyzed by one-way ANOVA followed by post hoc Tukey test or unpaired t-test. “*”, “**”, “***” and “****” represent P<0.05, P<0.01, P<0.001 and P<0.0001 respectively, which are considered statistically significant.

[4] = Brain uptake study in SD rat
Experimental: as §1
To prepare brain homogenate, the whole brain of each rat was minced. Saline (2 mL/g brain) was added followed by ultrasonic probe homogenization on ice. For analysis of P3V8, aliquot of brain homogenate (100 μL) was mixed with 200 μL acetonitrile. The mixture was vortexed for 1 min and followed by centrifugation at 13000 rcf for 10 min to collect the supernatant. […]

[5] = test system: DsRedCAG0 Drosophila; experiment: Pseudopupil assay in DsRedCAG0 control Drosophila (toxicity of peptide); format: in vivo; settings: up to 50 μM
Experimental: Because of the aim to develop P3V8 into a potent inhibitor that targets RNA toxicity in degenerating cells within the nervous system, it was assessed whether P3V8 had deleterious effects on neuronal cells by determining lactate dehydrogenase release in the culturing medium of rat cortical neurons.
Flies were raised at 21.5° C. on cornmeal medium supplemented with dry yeast. Fly lines bearing UAS-DsRedCAG0 and UAS-DsRedCAG100 were kind gifts of Professor Nancy Bonini (University of Pennsylvania, USA). The gmr-GAL4 fly line was obtained from Bloomington Drosophila Stock Center. For pseudopupil assay, third instar larvae were fed with various amount of respective peptides dissolved in 2% sucrose solution for 2 hr and then continued to culture in standard fly food at 21.5° C.^38. Pseudopupil assay was performed on 12 day-old adult flies as mentioned previously^39. Images were captured by SPOT Insight CCD camera controlled by the SPOT Advanced software (Diagnostic instruments Inc.). Image processing was performed using the Adobe Photoshop CS software (Adobe). Each experiment was repeated at least 3 times (n=10 fly heads), and consistent results were obtained. […] Viability from egg-to-adult was calculated as the number of adult flies collected divided by the number of eggs examined. […]

[6] = Intravenous administration, 3 μmol/kg, SD rats

Molecule | cellular uptake [1] | cellular concentration compared to P3V8 ([1]; 500 nM and 1 μM treatment) | Pecentage of remained ([2]; 500 ng/mL, incubation for 1 hr) | remaining at 1 h, 1000 ng/mL ([2]; male, Sprague-Dawley, rat, 1000 ng/mL, incubation for 1 hr, read-out: Pecentage of remained) | AUC0-last ([3]; 3 μmol/kg, SD rats) | Cmax [3, 6] | T1/2 [3, 6] | plasma concentration 90 min after dosing ([3]; intravenous, 3 μmol/kg) | tissue level at time molar at 20 min ([4]; Sprague-Dawley, rat, in vivo, iv, 3 umol/kg) | effect on DsRedCAG0 Drosophila [5] | Pecentage of remained ([2]; 2000 ng/mL, incubation for 1 hr) | Pecentage of remained ([2]; 2000 ng/mL, incubation for 3 hr) | remaining at 1 h, 2000 ng/mL ([2]; male, Sprague-Dawley, rat, rat plasma, 2000 ng/mL, incubation for 1 hr, read-out: Pecentage of remained) | T1/2 ([3]; rat, in vivo, iv, 3 umol/kg) | brain concentration ([4]; 20 min after intravenous administration, 3 μmol/kg)
CCCCCCCCCCCCCCCC(=O)N[C@@H](CC(=O)O)C(=O)NCC(=O)N[C@@H](CCCCN)C(=O)N[C@@H](CO)C(=O)N[C@@H](CCCCN)C(=O)NCC(=O)N[C@H](C(=O)N[C@@H](C)C(=O)N[C@@H](Cc1ccc(O)cc1)C(=O)N[C@H](C(=O)N[C@@H](CCC(=O)O)C(=O)N[C@@H](Cc1ccccc1)C(=O)N[C@@H](CCCCN)C(N)=O)[C@@H](C)CC)[C@@H](C)CC [L1P3V8] (Palmitoyl-DGKSKGIAYIEFK-NH2) | low cellular concentration | higher cellular concentration | 88.1 ± 4.9% | 98.7 ± 3.9% | 2277 ± 558*** min * nmol/L | 10.4 ± 1.23 µM | 17 min | 190 nmol/L | 0.013 nmol/g | no cytotoxic effects | – | – | – | – | –
Ac-DGKSKGIAYIEFK-NH2 [P3V8] | no uptake | – | – | – | 85 ± 32 nmol·min/L | 0.452 ± 0.022 µM | – | – | – | did not show any observable effect | 20.7% and 20.7 ± 3.3% | almost completely degraded | 21% | too short to be determined | no and not detected
